Measurements as given in paper PMC10825133, “Repurposing proteasome inhibitors for improved treatment of triple-negative breast cancer” (Cell Death Discovery, 2024).
Where two headings read alike, the source gives them in different places. Residues, ends and D or L forms follow the SMILES beside them. *: point of attachment. Cbz = O=C(OCc1ccccc1)*

Tests used:
HCC38 cells = assay: Combination therapy, resazurin viability, SynergyFinder; assay type: cell-based, human
Protocol: (§1) Eighteen pharmaceutical compounds were purchased from Selleckchem (Supplementary Table 2). Stock solutions were prepared using dimethyl sulfoxide (DMSO; Merck), physiological saline (sodium chloride 0.9%) or Milli-Q water, and stored at −80 °C. […] Matched concentration solvent vehicle controls were used for each drug concentration. The drug screens were performed in triplicate and repeated three (monotherapy) or two (combination therapy) times (Fig. 7).
(§2) The optimal seeding density per 96-well was determined for each cell line as previously described. The cells were seeded at a density of 4.0 × 10^3 to 7.5 × 10^3 (cell type dependent) in 96-well clear, flat-bottom microplates (Corning Life Sciences, Sigma-Aldrich) in 100 µl complete culture medium (Supplementary Table 1) and cultured for 24 h. Cell viability was determined using the resazurin assay in untreated cells at the time of plating (t = 0) and treated cells after 24 h drug treatment (Fig. 7). Percentage cell viability was calculated as 100% × (absorbance of treated cells – absorbance of background controls) / (absorbance of matched solvent vehicle controls – absorbance of background controls). The area under the curve (AUC), half-maximal inhibitory concentration (IC50), drug potency (GR50), and drug efficacy (GRmax) were determined for each compound using the GRmetrics (version 1.20.0) package in R. The monotherapy data were evaluated with the IDACombo (version 1.0.2) package in R to predict potential drug combinations (Table 1). SynergyFinder (version 3.2.10) package in R was used to identify synergistic drug combinations.
(§3) Eighteen pharmaceutical compounds were purchased from Selleckchem. […] The solubility of the compound was enhanced by pre-heating the solvent (lukewarm), if necessary. […] The stock solutions were stored at -80°C. […] Matched concentration solvent vehicle controls were used for each drug concentration. The drug screens were performed in triplicate and repeated three times for the monotherapies and twice for the combination treatments. The drug(s) and corresponding controls were plated in 96-well PCR plates (VWR) and stored at -20°C (Fig. 6). The drug plates were thawed, centrifuged (3000 rpm for 30s), and acclimatized to RT before the drugs were added to the cells. New drug plates were prepared for each drug screen.
(§4) The cells were seeded at a density of 4.0x10^3 to 7.5x10^3 (cell type-dependent) in 96-well clear, flat-bottom microplates (Corning Life Sciences, Sigma-Aldrich) in 100 µl culture medium supplemented with 10% FBS and cultured for 24h. Cell viability was determined using the resazurin assay after 24h drug treatment (Fig. 6). Percentage cell viability was calculated as 100% × (absorbance of treated cells – absorbance of background controls) / (absorbance of matched solvent vehicle controls – absorbance of background controls). Normalized growth rate inhibition (GR) was assessed using the absorbance of untreated cells after the time of plating (t = 0). […] For combination treatment, the monotherapy data were evaluated with the IDACombo (version 1.0.2)[20] package in R to predict potential drug combinations (Table 1). SynergyFinder (version 3.2.10)[21] package in R was used to identify synergistic drug combinations.

CAL-148 cells [1] = assay: Resazurin-based cell viability assay, monotherapy drug screen; parameters: species or system human; AUC: unit not given beside the values; conditions: for AUC: area under the dose response curve, 24 h; for GRmax: drug efficacy at highest tested dose (<0 cytotoxic, 0 cytostatic, >0 partial growth inhibition)
Protocol: as §1, §2, §3
Cell viability was measured daily (day 0 [plating day] to day 4) using 0.2 mg/ml resazurin solution prepared from resazurin sodium salt (Fisher Scientific) dissolved in sterile 1xPBS (ThermoFisher Scientific). Before use, the resazurin solution was brought to RT before 10 µl (10% of cell medium volume) was added to each 96-well and incubated for 4h at 37°C. […] The slope of the curve was used to determine the optimal seeding density, i.e., the highest seeding density with linear growth between days 1 and 3.
as §4

[2] = tested on: control cell lines (MCF-10A and MCF-7); assay: Monotherapy drug screen, mean across the controls; assay type: cell-based, human; conditions: for area under the dose response curve (AUC), mean ± SD: 24 h; for IC50: 24 h drug treatment, read-out: GR50 (mean ± SD)
Protocol: as §1, §2, §3, §4

[3] = tested on: eight TNBC cell lines and two controls (MCF-10A and MCF-7); assay: Monotherapy drug screen, all investigated cell lines; assay type: cell-based, human; conditions: for drug potency classification, below the threshold: GR50 and AUC both below the threshold
Protocol: as §1, §2, §3, §4

[4] = biological target: T1, β5 catalytic site of the 20 S proteasome (Homo sapiens, UniProt P28074); assay: Proteasome activity of the β5 catalytic site in MCF-7 cells (Suc-Leu-Leu-Val-Tyr-AMC substrate); assay type: cell-based; conditions: for inhibition at 1 µM: 1000 nM
T1 construct: endogenous in cells; host or cells: MCF-7
Protocol: Proteasome activity of the β5 catalytic site was determined for the PIs using a Suc-Leu-Leu-Val-Tyr-AMC fluorescent proteasome substrate (Enzo Life Sciences, Cat. BML-P802) at a final concentration of 20 µM. MCF-7 cells were seeded at 7.5 × 10^3 cells/well in black 96-well flat-bottom microplates (Nuclon™ Delta Surface, ThermoFisher Scientific) with 100 µl culture medium supplemented with 10% FBS. After 24 h, the cells were treated for 6 h with the 11 PIs at 1, 10, 100, and 1000 nM and matched untreated controls.

CAL-148 cells [5] = assay: Combination therapy, resazurin viability, SynergyFinder; assay type: cell-based, human
Protocol: as §1, §2, §3, §4

[6] = CAL-148, 24 h drug treatment, read-out: IC50
[7] = CAL-148, growth rate inhibition concentration at GR(c) = 0.5, 24 h, read-out: GR50 (the source's name)
[8] = metrics GR50 < 1.0 µM and AUC < 0.80
[9] = Homo sapiens, CAL-148, 24 h drug treatment, read-out: IC50
[10] = Homo sapiens, CAL-148, growth rate inhibition concentration at GR(c) = 0.5, 24 h, read-out: GR50 (the source's name)
[11] = MCF7, MCF-7 cells treated 6 h, 10000 nM, read-out: inhibition of β5 activity
[12] = Homo sapiens, CAL-148, 24 h, read-out: GR50 (µM)

| SMILES | AUC (CAL-148 cells [1]; CAL-148) | GRmax (CAL-148 cells [1]; CAL-148) | drug potency classification [3, 8] | IC50 (CAL-148 cells [1]; [10]) [µM] | drug potency classification, below the threshold [3] | further results |
| --- | --- | --- | --- | --- | --- | --- |
| N.N.O=C([O-])C1(C(=O)[O-])CCC1.[Pt+2] [Carboplatin] | 0.92 | 0.03 | – | – | – | Inhibition (%) (HCC38 cells; carboplatin 8 µM alone): −3.64%; Inhibition (%) (HCC38 cells; carboplatin 32 µM alone): −1.55%; Inhibition (%) (HCC38 cells; carboplatin 128 µM alone): 0.55%; Inhibition (%) (HCC38 cells; carboplatin 512 µM alone): 11.55%; IC50 (CAL-148 cells [1]; [6]): 0.93 µM; IC50 (CAL-148 cells [1]; [7]): 0.49 µM |
| N.N.[Cl][Pt][Cl] [Cisplatin] | 0.48 | −0.97 | potent drugs | – | – | area under the dose response curve (AUC), mean ± SD [2]: 0.54 ± 0.12; IC50 (CAL-148 cells [1]; [6]): 0.048 µM; IC50 (CAL-148 cells [1]; [7]): 0.032 µM |
| COc1cccc2c1C(=O)c1c(O)c3c(c(O)c1C2=O)C[C@@](O)(C(=O)CO)C[C@@H]3O[C@H]1C[C@H](N)[C@H](O)[C@H](C)O1 [Doxorubicin] | 0.72 | 0.15 | – | 0.12 | – | IC50 (CAL-148 cells [1]; [9]): 0.22 µM |
| COc1cccc2c1C(=O)c1c(O)c3c(c(O)c1C2=O)C[C@@](O)(C(=O)CO)C[C@@H]3O[C@H]1C[C@H](N)[C@@H](O)[C@H](C)O1 [Epirubicin] | 0.73 | 0.14 | – | 0.11 | – | IC50 (CAL-148 cells [1]; [9]): 0.2 µM |
| CC[C@H](C)[C@H](NC(=O)[C@H]([C@@H](C)CC)N(C)C(C)=O)C(=O)N[C@H](C(=O)N[C@@H](CC(C)C)C(=O)[C@@]1(C)CO1)[C@@H](C)O [Epoxomicin] | 0.78 | 0.11 | – | – | highly potent drugs | area under the dose response curve (AUC), mean ± SD [2]: 0.66 ± 0.080; IC50 [2]: 0.085 ± 0.01 µM; IC50 (CAL-148 cells [1]; [7]): 0.77 µM; drug potency classification [3]: potent drugs |
| CC(=O)O[C@H]1C(=O)[C@@]2(C)[C@H]([C@H](OC(=O)c3ccccc3)[C@]3(O)C[C@H](OC(=O)[C@H](O)[C@@H](NC(=O)c4ccccc4)c4ccccc4)C(C)=C1C3(C)C)[C@]1(OC(C)=O)CO[C@@H]1C[C@@H]2O [Paclitaxel] | 0.92 | 0.51 | – | 1.1 | – | inhibition at 0.01 µM (HCC38 cells; Homo sapiens, paclitaxel 10 nM alone): -0.18%; inhibition at 0.078 µM (HCC38 cells; Homo sapiens, paclitaxel 78 nM alone): 10.6%; inhibition at 0.625 µM (HCC38 cells; Homo sapiens, paclitaxel 625 nM alone): 21.1%; inhibition at 5 µM (HCC38 cells; Homo sapiens, paclitaxel 5000 nM alone): 24.7% |
| CC(C)C[C@H](NC(=O)CNC(=O)c1cc(Cl)ccc1Cl)B(O)O [MLN 2238, MLN-2238] | 0.83 | 0.18 | potent drugs | 0.27 | highly potent drugs | inhibition at 10 µM [4, 11]: 33% |
| COC[C@H](NC(=O)c1cnc(C)s1)C(=O)N[C@@H](COC)C(=O)N[C@@H](Cc1ccccc1)C(=O)[C@@]1(C)CO1 [Oprozomib] | 0.90 | 0.14 | – | 1.1 | – | – |
| CC(=O)O[C@@]12CO[C@@H]1C[C@H](O)[C@@]1(C)C(=O)[C@H](O)C3=C(C)[C@@H](OC(=O)[C@H](O)[C@@H](NC(=O)OC(C)(C)C)c4ccccc4)C[C@@](O)([C@@H](OC(=O)c4ccccc4)[C@H]21)C3(C)C [Docetaxel] | 0.89 | 0.74 | potent drugs | – | highly potent drugs | IC50 ([2]; Homo sapiens): 0.0078 ± 0.0013 µM |
| CC(C)C[C@H](NC(=O)[C@H](CCc1ccccc1)NC(=O)CN1CCOCC1)C(=O)N[C@@H](Cc1ccccc1)C(=O)N[C@@H](CC(C)C)C(=O)[C@@]1(C)CO1 [Carfilzomib] | 0.84 | −0.01 | potent drugs | 0.37 | highly potent drugs | – |
| CC(C)C[C@H](NC(=O)[C@H](Cc1ccccc1)NC(=O)c1cnccn1)B(O)O [Bortezomib] | 0.77 | 0.17 | potent drugs | 0.12 | highly potent drugs | inhibition at 0.01 µM (CAL-148 cells [5]; Homo sapiens, bortezomib 10 nM alone): 12.5%; inhibition at 0.078 µM (CAL-148 cells [5]; Homo sapiens, bortezomib 78 nM alone): 62.8%; inhibition at 0.625 µM (CAL-148 cells [5]; Homo sapiens, bortezomib 625 nM alone): 55.1%; inhibition at 5 µM (CAL-148 cells [5]; Homo sapiens, bortezomib 5000 nM alone): 55.6%; inhibition at 1 µM ([4]; MCF7, MCF-7 cells treated 6 h): 95%; inhibition at 10 µM [4, 11]: 100%; area under the dose response curve (AUC), mean ± SD [2]: 0.69 ± 0.10; IC50 ([2]; Homo sapiens): 0.021 ± 0.0097 µM |
| [NH2][Pt]1([NH2])[O]CC(=O)[O]1 [Nedaplatin] | 0.78 | −0.93 | potent drugs | – | – | Inhibition (%) (CAL-148 cells [5]; nedaplatin 8 µM alone): −9.21%; Inhibition (%) (CAL-148 cells [5]; nedaplatin 32 µM alone): 2.14%; Inhibition (%) (CAL-148 cells [5]; nedaplatin 128 µM alone): 9.01%; Inhibition (%) (CAL-148 cells [5]; nedaplatin 512 µM alone): 49.72%; area under the dose response curve (AUC), mean ± SD [2]: 0.70 ± 0.13; IC50 (CAL-148 cells [1]; [6]): 0.32 µM; IC50 (CAL-148 cells [1]; [7]): 0.21 µM |
| CC1=C(O)C(=O)C=C2C1=CC=C1[C@@]2(C)CC[C@@]2(C)[C@@H]3C[C@](C)(C(=O)O)CC[C@]3(C)CC[C@]12C [Celastrol] | 0.85 | −0.84 | – | – | – | IC50 (CAL-148 cells [1]; Homo sapiens, CAL-148, 24 h): 3.7 µM; IC50 (CAL-148 cells [1]; [12]): 3.1 µM |
| CC(C)C[C@@H](C=O)NC(=O)[C@H](CC(C)C)NC(=O)[C@H](CC(C)C)NC(=O)OCc1ccccc1 [MG 132, MG-132] (Cbz-Leu-Leu-Leu-aldehyde) | 0.89 | 0.22 | – | – | – | inhibition at 10 µM ([4]; MCF7, read-out: inhibition of β5 activity): 25%; IC50 (CAL-148 cells [1]; [12]): 3.4 µM |
| CC(C)C[C@H](NC(=O)[C@@H](NC(=O)c1cccc(-c2ccccc2)n1)[C@@H](C)O)B(O)O [Delanzomib] | 0.77 | 0.39 | potent drugs | 0.023 | highly potent drugs | inhibition at 1 µM ([4]; MCF7, MCF-7 cells treated 6 h): 55%; inhibition at 10 µM [4, 11]: 100%; IC50 ([2]; Homo sapiens): 0.024 ± 0.013 µM |
| CC(C)C[C@H](NC(=O)CNC(=O)c1cc(Cl)ccc1Cl)B1OC(=O)C(CC(=O)O)(CC(=O)O)O1 [MLN 9708, MLN-9708] | 0.88 | 0.40 | potent drugs | 0.5 | – | inhibition at 10 µM [4, 11]: 51% |
